# Source: ChEMBL document CHEMBL5055656, “Synthesis of novel indole-thiazolidinone hybrid structures as promising scaffold with anticancer potential” (Bioorg Med Chem, 2021)
# Activity calls are given as the source filed them. The calls are words filed in the database; no cut-off is given here.
# Legend:
# HepG2 [1] = experiment: Cytotoxicity against human HepG2 cells assessed as cell growth inhibition measured after 72 hrs by MTT assay; assay type: functional
# MCF7 [2] = experiment: Cytotoxicity against human MCF7 cells assessed as cell growth inhibition measured after 72 hrs by MTT assay; assay type: functional
# [3] = Cytotoxicity against mouse BALB/3T3 cells assessed as cell growth inhibition measured after 72 hrs by MTT assay; assay type: cell-based
# HepG2 [4] = experiment: Cytotoxicity against human HepG2 cells assessed as cell growth inhibition measured after 24 hrs by MTT assay; assay type: functional
# HepG2 [5] = experiment: Cytotoxicity against human HepG2 cells assessed as cell growth inhibition measured after 24 hrs by neutral red uptake assay; assay type: functional
# HepG2 [6] = experiment: Cytotoxicity against human HepG2 cells assessed as cell growth inhibition measured after 24 hrs by coomassie brilliant blue staining based total cellular protein assay; assay type: functional
# HepG2 [7] = experiment: Cytotoxicity against human HepG2 cells assessed as cell growth inhibition measured after 48 hrs by coomassie brilliant blue staining based total cellular protein assay; assay type: functional
# HepG2 [8] = experiment: Cytotoxicity against human HepG2 cells assessed as cell growth inhibition measured after 48 hrs by LDH assay; assay type: functional
# HepG2 [9] = experiment: Cytotoxicity against human HepG2 cells assessed as cell growth inhibition measured after 72 hrs by LDH assay; assay type: functional
# [10] = (§1) Cytotoxicity against mouse BALB/3T3 cells assessed as cell growth inhibition measured after 24 hrs by MTT assay; assay type: cell-based; details: BALB/3T3 cells
# BALB/3T3 [11] = experiment: as §1; assay type: cell-based; details: balb/3t3, 24 h
# [12] = (§2) Cytotoxicity against mouse BALB/3T3 cells assessed as cell growth inhibition measured after 48 hrs by MTT assay; assay type: cell-based; details: BALB/3T3 cells
# BALB/3T3 [13] = experiment: as §2; assay type: cell-based; details: balb/3t3, 48 h
# [14] = (§3) Cytotoxicity against mouse BALB/3T3 cells assessed as cell growth inhibition measured after 48 hrs by coomassie brilliant blue staining based total cellular protein assay; details: BALB/3T3 cells
# BALB/3T3 [15] = experiment: as §3; details: balb/3t3, 48 h
# [16] = (§4) Cytotoxicity against mouse BALB/3T3 cells assessed as cell growth inhibition measured after 72 hrs by coomassie brilliant blue staining based total cellular protein assay; details: BALB/3T3 cells
# BALB/3T3 [17] = experiment: as §4; details: balb/3t3, 72 h
# [18] = (§5) Cytotoxicity against mouse BALB/3T3 cells assessed as cell growth inhibition measured after 72 hrs by LDH assay; assay type: cell-based; details: BALB/3T3 cells
# BALB/3T3 [19] = experiment: as §5; assay type: cell-based; details: balb/3t3, 72 h
# HepG2 [20] = experiment: Induction of apoptosis in human HepG2 cells assessed as activation of cleaved PARP1 expression at 0.7 uM incubated for 24 hrs by Western blot analysis; assay type: functional, cell-based
# HCT-116 [21] = experiment: Induction of apoptosis in human HCT-116 cells assessed as activation of cleaved PARP1 expression at 0.7 uM incubated for 24 hrs by Western blot analysis; assay type: functional, cell-based
# HepG2 [22] = experiment: Induction of apoptosis in human HepG2 cells assessed as increase in Bax expression at 45 uM after 24 hrs by Western blot analysis; assay type: functional, cell-based
# HepG2 [23] = experiment: Induction of apoptosis in human HepG2 cells assessed as increase in Cdk2 expression at 45 uM after 24 hrs by Western blot analysis; assay type: functional, cell-based
# HCT-116 [24] = experiment: Induction of apoptosis in human HCT-116 cells assessed as decrease in Cdk2 expression at 45 uM after 24 hrs by Western blot analysis; assay type: functional, cell-based
# MCF7 [25] = experiment: Induction of apoptosis in human MCF7 cells assessed as decrease in Cdk2 expression at 45 uM after 24 hrs by Western blot analysis; assay type: functional, cell-based
# MCF7 [26] = experiment: Induction of DNA damage in human MCF7 cells assessed as increase in tail length incubated at 0.7 uM measured after 24 hrs by alkaline Comet assay; assay type: functional, cell-based
# HCT-116 [27] = experiment: Induction of DNA damage in human HCT-116 cells assessed as increase in tail length incubated at 0.7 uM measured after 24 hrs by alkaline Comet assay relative to control; assay type: functional
# Salmon testes DNA = experiment: Displacement of methyl green from salmon sperm DNA at 1 uM measured after 2 hrs by fluorescence plate reader method relative to control; assay type: cell-based; details: Salmo salar, Spermatozoa
# [28] = Selectivity index, ratio of GI50 for human HaCaT cells to GI50 for human HepG2 cells; assay type: toxicity; details: HaCaT cells versus HepG2 cells, read-out: RatioGI50
# [29] = Selectivity index, ratio of GI50 for human HaCaT cells to GI50 for human HeLa cells; assay type: toxicity; details: HaCaT cells versus HeLa cells, read-out: RatioGI50
# [30] = Selectivity index, ratio of GI50 for human HaCaT cells to GI50 for human WM793 cells
# [31] = Selectivity index, ratio of GI50 for mouse BALA/3T3 cells to GI50 for human HepG2 cells; assay type: toxicity; details: BALA/3T3 cells versus HepG2 cells, read-out: RatioGI50
# [32] = Selectivity index, ratio of GI50 for mouse BALA/3T3 cells to GI50 for human MCF7 cells; assay type: toxicity; details: BALA/3T3 cells versus MCF7 cells, read-out: RatioGI50
# [33] = Selectivity index, ratio of GI50 for mouse BALA/3T3 cells to GI50 for human HeLa cells; assay type: toxicity; details: BALA/3T3 cells versus HeLa cells, read-out: RatioGI50
# [34] = Selectivity index, ratio of GI50 for human HaCaT mouse BALA/3T3 cells to GI50 for human A549 cells; assay type: toxicity; details: read-out: RatioGI50
# [35] = Selectivity index, ratio of GI50 for mouse BALA/3T3 cells to GI50 for human WM793 cells
# [36] = Selectivity index, ratio of GI50 for mouse BALA/3T3 cells to GI50 for human THP-1 cells
# [37] = Selectivity index, ratio of GI50 for mouse BALA/3T3 cells to GI50 for human HepG2 cells measured after 24 hrs by coomassie brilliant blue staining based total cellular protein assay; assay type: toxicity; details: BALA/3T3 cells versus HepG2 cells, read-out: Selectivity Index
# [38] = Selectivity index, ratio of GI50 for mouse BALA/3T3 cells to GI50 for human HepG2 cells measured after 48 hrs by coomassie brilliant blue staining based total cellular protein assay; assay type: toxicity; details: BALA/3T3 cells versus HepG2 cells, read-out: Selectivity Index
# [39] = Selectivity index, ratio of GI50 for mouse BALA/3T3 cells to GI50 for human HepG2 cells measured after 72 hrs by coomassie brilliant blue staining based total cellular protein assay; assay type: toxicity; details: BALA/3T3 cells versus HepG2 cells, read-out: Selectivity Index
# [40] = Selectivity index, ratio of GI50 for mouse BALA/3T3 cells to GI50 for human HepG2 cells measured after 24 hrs by LDH assay; assay type: toxicity; details: BALA/3T3 cells versus HepG2 cells, read-out: Selectivity Index
# [41] = Selectivity index, ratio of GI50 for mouse BALA/3T3 cells to GI50 for human HepG2 cells measured after 48 hrs by LDH assay; assay type: toxicity; details: BALA/3T3 cells versus HepG2 cells, read-out: Selectivity Index
# [42] = Selectivity index, ratio of GI50 for mouse BALA/3T3 cells to GI50 for human HepG2 cells measured after 72 hrs by LDH assay; assay type: toxicity; details: BALA/3T3 cells versus HepG2 cells, read-out: Selectivity Index
structure (smiles),measurement,setting,value
COC(=O)c1[nH]c2ccc(F)cc2c1/C=C1\SC(=S)NC1=O,GI50,HepG2 [1],12.1 µM
same,GI50,MCF7 [2],0.7 µM
same,GI50 at 72 h,[3],40.8 µM
same,GI20,HepG2 [4],3 µM
same,GI80,HepG2 [4],95.6 µM
same,GI50,"HepG2 [4]; Homo sapiens, HepG2",44.7 µM
same,GI20,HepG2 [5],2.4 µM
same,GI80,HepG2 [5],80.7 µM
same,GI50,"HepG2 [5]; Homo sapiens, HepG2",40.1 µM
same,GI20,HepG2 [6],3.7 µM
same,GI80,HepG2 [6],>100 µM
same,GI50,"HepG2 [6]; Homo sapiens, HepG2",> 100 µM
same,GI20,HepG2 [7],1.6 µM
same,GI80,HepG2 [7],>100 µM
same,GI50,"HepG2 [7]; Homo sapiens, HepG2",63.9 µM
same,GI20,HepG2 [8],<0.01 µM
same,GI80,HepG2 [8],16.2 µM
same,GI50,"HepG2 [8]; Homo sapiens, HepG2",0.06 µM
same,GI20,HepG2 [9],<0.01 µM
same,GI80,HepG2 [9],3.6 µM
same,GI50,"HepG2 [9]; Homo sapiens, HepG2",0.04 µM
same,GI50 at 24 h,[10],54.3 µM
same,GI20,BALB/3T3 [11],7.9 µM
same,GI80,BALB/3T3 [11],> 100 µM
same,GI50 at 48 h,[12],25 µM
same,GI20,BALB/3T3 [13],0.8 µM
same,GI80,BALB/3T3 [13],84.8 µM
same,GI50 at 48 h,[14],> 100 µM
same,GI20,BALB/3T3 [15],3.7 µM
same,GI80,BALB/3T3 [15],> 100 µM
same,GI50 at 72 h,[16],48.3 µM
same,GI20,BALB/3T3 [17],1.6 µM
same,GI80,BALB/3T3 [17],> 100 µM
same,GI50 at 72 h,[18],62.8 µM
same,GI20,BALB/3T3 [19],2.9 µM
same,GI80,BALB/3T3 [19],> 100 µM
same,Activity,HepG2 [20],Active
same,Activity,HCT-116 [21],Active
same,Activity,HepG2 [22],Active
same,Activity,HepG2 [23],Active
same,Activity,HCT-116 [24],Active
same,Activity,MCF7 [25],Active
same,Activity,MCF7 [26],Active
same,Activity,HCT-116 [27],16.1%
same,Activity,Salmon testes DNA,1.7%
same,selectivity ratio,[28],5.75
same,selectivity ratio,[29],1.41
same,RatioGI50,[30],0.87
same,selectivity ratio,[31],5.75
same,selectivity ratio,[32],99.4
same,selectivity ratio,[33],1.41
same,selectivity ratio,[34],7.17
same,RatioGI50,[35],0.87
same,RatioGI50,[36],1.11
same,selectivity ratio at 24 h,[37],1
same,selectivity ratio at 48 h,[38],2
same,selectivity ratio at 72 h,[39],3
same,selectivity ratio at 24 h,[40],323
same,selectivity ratio at 48 h,[41],1500
same,selectivity ratio at 72 h,[42],1570
